The results in this text go back to US20250381307A1, “RETRO-AAV AND USE IN TREATING NEURODEGENERATIVE DISEASES” (priority 2023, published 2025).

The test system of one experiment is hM3Dq or rM3Ds. Nature of the experiment: Locomotion test in macaques with nigral hM3Dq or rM3Ds AAV after CNO. Type of experiment: in vivo. The procedure: To guide the virus injection in SNr, a guide grid of multiple holes spaced by 1 mm was installed on each subject vertically above the SN. By filling vitamin E in these holes, the accurate coordinates for injection could be obtained from the T1-weighted MRI images (3T Tim Trio scanner, Siemens). Virus injections were performed in nine sites covering the whole SNr, and a total volume of 27 μL virus was unilaterally injected in the right SNr at the speed of 300 nL/min.
The locomotion tests for monkeys were conducted in a custom-made observation cage (100 cm×100 cm×100 cm). The top and front of the cage were made of toughened glass in order to gain a clear view for behavioral recording. Monkeys were habituated to the observation cage by placing them inside for 30 minutes on three separate days.
For monkeys injected with AAV8R12-G88P3-HA-hM3Dq, CNO was intracranially infused into the dorsomedial caudate through the recording chamber. To infuse while the animal was awake, the monkey was trained to sit in a primate chair specially designed with its head fixed to the primate chair by a mask made of thermoplastic materials. Injections were conducted through a 33-Gauge needle connected to a 250 μL syringe via a polyethylene pipe (Hamilton, Neuros). […] The needle was held for 5 minutes for drug diffusion before retraction. For monkeys injected with AAV8R12-G88P7-rM3Ds-2A-EYFP, CNO was infused via intramuscular injection (10 mg/kg). […] Videos capturing the subjects' behavior were recorded for at least 90 minutes. Animal behaviors from 30-90 minutes after saline/CNO infusion were further analyzed and quantified.
For rotation analysis, only movements that occurred lower than 30 cm on the z-axis were counted. To determine the direction of the rotation, we first computed the center for the rotation data in the x-y plane as (x0, y0) by averaging all data points, and then we computed the angle relative to (x0, y0) for each time point by the following formula:
where θi represents the rotating angle at time i, and (xi, yi) represents the x-y coordinate at time i. We then calculated the change of rotating angle as Δθi=θi−θi-1. For right nigral injections, when Δθ<0, the direction of the rotation was anticlockwise and was labeled as a contraversive rotation. When Δθ>0, the direction of the rotation was clockwise and was labeled as an ipsiversive rotation. The raw data were analyzed and plotted through a custom R package. Code is available on Github (github.com/chenyef/PD_ana/blob/main/Behavior_ana.txt).

In the next experiment the target is hM3Dq (Homo sapiens, UniProt P20309, A239G/Y149C). Put plainly: Slice whole-cell recordings of hM3Dq-transduced MSNs. Type of experiment: cell-based, mice. Set-up: 2A-EYFP (C); host or cells: AAV8R12-transduced EYFP+ striatal MSNs in acute mouse brain slices. As to conditions: AAV8R12-G88P3-HA-hM3Dq-2A-EYFP; CNO 10 μM; basal firing rate and resting membrane potential unaffected. The text has this:
Mice from different groups were anesthetized with […] isoflurane, and then decapitated. The brain was quickly extracted and placed in ice-cold N-methyl-D-glucamine (NMDG) cutting solution containing (in mM): 92 NMDG, 2.5 KCl, 25 NaHCO3, 1.25 NaH2PO4, 4.5 D-Glucose, 20 HEPES, 5 L-ascorbic acid, 3 Na-pyruvate, 2 Thiourea, 10 MgSO4, 0.5 CaCl2). The pH was adjusted to 7.2±0.1 using HCl and the osmolarity was adjusted to 305±5 mosmol/L using NMDG. The solution was bubbled with 95% O2/5% CO2 prior to use. Coronal striatum slices were cut in 250-[…]m thickness with a vibratome slicer (Leica, VT1200 S), and then incubated in artificial cerebrospinal fluid (aCSF) saturated with 95% O2/5% CO2 for at least 45 min at 37° C. before recording. The aCSF contains (in mM) 125 NaCl, 1.25 KCl, 25 NaHCO3, 1.25 KH2PO4, 25 D-Glucose, 2 CaCl2) and 1 MgCl2, supplemented with 2 mM Na-pyruvate, 3 mM Myo-inositol and 0.4 mM L-ascorbic acid.
The acute striatum slice was transferred to the recording chamber with a constant perfusion of oxygenized aCSF at the rate of 3 ml/min. Neurons were visualized using an upright microscope (Olympus, BX-51) with a 40×water immersion objective at room temperature (˜25° C.). […] Neurons were quickly visualized under fluorescence microscope and then patch clamp were achieved under infrared light illumination and CCD camera. […]

Sequence of hM3Dq (P20309 whole entry Y149C/A239G): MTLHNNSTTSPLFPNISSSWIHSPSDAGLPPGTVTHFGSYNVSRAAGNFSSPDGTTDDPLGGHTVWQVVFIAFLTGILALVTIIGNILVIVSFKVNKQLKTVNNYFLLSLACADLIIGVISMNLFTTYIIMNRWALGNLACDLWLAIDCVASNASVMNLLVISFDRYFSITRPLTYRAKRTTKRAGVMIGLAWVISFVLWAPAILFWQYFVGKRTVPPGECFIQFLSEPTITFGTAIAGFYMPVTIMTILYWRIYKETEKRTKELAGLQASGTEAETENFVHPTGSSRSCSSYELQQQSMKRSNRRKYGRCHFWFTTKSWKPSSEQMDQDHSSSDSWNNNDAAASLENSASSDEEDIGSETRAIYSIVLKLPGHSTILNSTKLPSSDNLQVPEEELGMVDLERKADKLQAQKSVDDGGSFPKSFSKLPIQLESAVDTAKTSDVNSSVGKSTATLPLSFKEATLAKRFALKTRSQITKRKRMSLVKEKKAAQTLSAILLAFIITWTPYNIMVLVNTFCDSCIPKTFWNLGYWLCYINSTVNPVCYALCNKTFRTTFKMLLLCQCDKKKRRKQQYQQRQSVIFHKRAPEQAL

For the compound `C[N+]1([O-])CCN(C2=Nc3cc(Cl)ccc3Nc3ccccc32)CC1` [CNO, clozapine N-oxide], in the experiment with hM3Dq or rM3Ds (following CNO infusions), the “muscle tone by electromyogram recordings” value is on record as “an increase in the muscle tone of the contralateral biceps brachii”. Besides, the “contraversive rotations (FIG. 10C)” value in the experiment on hM3Dq or rM3Ds (intracranial (hM3Dq) or systemic (rM3Ds) CNO, n=4 monkeys, mean±SEM, saline 1.004±0.2667) stood at 6.649±1.662. Further, the “velocity of ipsiversive rotations (FIG. 10H)” value in the experiment with hM3Dq or rM3Ds (n=4 monkeys, saline 37.43±3.264, not significant) was determined as 41.37±6.566. In the experiment on hM3Dq or rM3Ds (n=4 monkeys, saline 38.42±5.465), the “speed during contraversive rotations (FIG. 10G)” value worked out at 46.98±6.669. Besides, the “time in the top portion of the observing cage (FIG. 10D)” value with hM3Dq or rM3Ds (n=4 monkeys, saline 68.42±10.7) came out at 33.74±2.641. Also, the “total distance (FIG. 10F)” value in the experiment on hM3Dq or rM3Ds (n=4 monkeys, saline 71.53±15.4, not significant) was 97.37±19.41. Also, the “immobile time (FIG. 10E)” value with hM3Dq or rM3Ds (n=4 monkeys, saline 107.1±2.322, not significant) was found to be 89.13±8.379. Also, the “rotations 2.5 years after the nigral injections” value in the experiment with hM3Dq or rM3Ds (systemic CNO, unilateral AAV8R12-G88P7-rM3Ds-2A-EYFP) is “increased contraversive rotations”. The “excitability of transduced MSNs” value on hM3Dq was “augmentation of excitability”.
